Results: US20250214942A1, “INHIBITORS OF RECEPTOR INTERACTING PROTEIN KINASE I FOR THE TREATMENT OF DISEASE” (Board of Regents, The University of Texas System, priority 2019, published 2025)
Where two headings read alike, the source gives them in different places.

Legend:
RIPK1 = RIPK1 (Homo sapiens (Human), UniProt Q13546); assay: ADP-Glo kinase assay (RIPK1 activity, conversion of ATP to ADP); format: biochemical; conditions: 5 nM RIPK1, 50 μM ATP, 6 h reaction, read-out: RIPK1 Enzyme Avg IC50
Protocol: In order to measure RIPK1 activity the ADP-Glo kinase assay (Promega, Catalog #V7002) was used to measure the conversion of ATP to ADP. This enzymatic assay was performed in a 384-well white, Optiplate (Perkin Elmer, Catalog #6007299) with assay buffer consisting of 50 mM HEPES pH 7.5 (Gibco, Catalog #15630-080), 50 mM NaCl (Teknova, Catalog #S0252), 30 mM MgCl2 (Ambion, Catalog #AM9530G), 1 mM DTT (Santa Cruz Biotechnology, Catalog #sc-29089), 0.05% BSA (Sigma, Catalog #A3059-50G) and 0.02% CHAPS (Sigma, Catalog #C5070-5G). Stock solutions of the test compounds were prepared in 100% DMSO (Sigma, Catalog #D2650) and serially diluted 1:3 using 100% DMSO. Compounds were additionally diluted 1:40 in assay buffer, and 2 μL/well were transferred to the assay plate. 4 μL/well (final concentration of 5 nM) of RIPK1 protein (SignalChem, Catalog #R07-1IG-05) diluted in assay buffer and added to the assay plate followed by a 10 minute preincutation at rt. 4 μL/well of ATP (Promega, Catalog #V7002) (final concentration of 50 μM) diluted in assay buffer were then added to the assay plate followed by a 6 h reaction time. Final concentrations of RIPK1 and ATP refer to a 10 μL volume. Luminescence was measured using a BioTek Synergy™ NEO plate reader. IC50 values were calculated using a four-parameter logistic curve fit using Genedata Screener software.

[1] = system: human monocytic cell line U937; assay: Human U937 cellular necroptosis assay (TNFalpha + z-VAD-FMK, Cell Titer-Glo viability); format: cell-based; conditions: Homo sapiens, U-937, 22 h, U937 cells, 25 ng/mL human TNFalpha + 25 μM z-VAD-FMK, read-out: hU937 Avg IC50
Method in brief: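 Cells resuspended in phenol red-free RPMI with 10% FBS, stimulated with 25 ng/mL human TNFalpha plus 25 μM z-VAD-FMK, then given serially diluted compound for 22 h at 37° C, 5% CO2. Viability by Cell Titer-Glo 2.0 luminescence; IC50 from four-parameter logistic fit, averaged across runs.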

Chain of RIPK1 (Q13546 1-327): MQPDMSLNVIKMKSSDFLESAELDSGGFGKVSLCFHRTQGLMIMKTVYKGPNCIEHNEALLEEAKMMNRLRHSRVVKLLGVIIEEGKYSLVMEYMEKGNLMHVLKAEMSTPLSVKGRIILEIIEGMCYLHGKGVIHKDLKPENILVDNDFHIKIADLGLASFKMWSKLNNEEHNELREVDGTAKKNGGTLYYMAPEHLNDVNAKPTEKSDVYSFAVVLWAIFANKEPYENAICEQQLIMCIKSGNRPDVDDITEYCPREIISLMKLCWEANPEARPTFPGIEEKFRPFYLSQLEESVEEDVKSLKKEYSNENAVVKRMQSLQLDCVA

IC50 (RIPK1) [nM]	Molecule	IC50 [1] [nM]	further results
16	N#Cc1ccc2cnn(CC34CC(C(=O)N5N=CCC5c5cc(F)cc(F)c5)(C3)C4)c2c1 (stereo not drawn) [Example 66, 1-((3-(5-(3,5-difluorophenyl)-4,5-dihydro-1H-pyrazole-1-carbonyl)bicyclo[1.1.1]-pentan-1-yl)methyl)-1H-indazole-6-carbonitrile]	–	–
–	C[C@H](NC(=O)C12CC(CO)(C1)C2)c1cc(F)cc(F)c1 [Example 90, (S)-N-(1-(3,5-difluoro-phenyl)ethyl)-3-(hydroxymethyl)-bicyclo[1.1.1]pentane-1-carboxamide]	–	IC50 (RIPK1; footnote symbol (a)): > 50000 nM
2910	CN(C)C(=O)C12CC(C(=O)N3N=CCC3c3cc(F)cc(F)c3)(C1)C2 (stereo not drawn) [Example 10, 3-(5-(3,5-Difluorophenyl)-4,5-dihydro-1H-pyrazole-1-carbonyl)-N,N-dimethylbicyclo[1.1.1]pentane-1-carboxamide]	–	–
13000	CNC(=O)C12CC(C(=O)N3N=CCC3c3cc(F)cc(F)c3)(C1)C2 (stereo not drawn) [Example 78, 3-(5-(3,5-difluorophenyl)-4,5-dihydro-1H-pyrazole-1-carbonyl)-N-methylbicyclo-[1.1.1]pentane-1-carboxamide]	–	–
–	Cc1cccc(C2CCCN2C(=O)C23CC(NC(=O)c4ccccc4)(C2)C3)c1 (stereo not drawn) [Example 117, N-(3-(2-(m-tolyl)pyrrolidine-1-carbonyl)bicyclo[1.1.1]-pentan-1-yl)benzamide]	–	IC50 (RIPK1; footnote symbol (a)): > 50000 nM
7110	N#Cc1cccc(NC(=O)C23CC(C(=O)N4N=CCC4c4cc(F)cc(F)c4)(C2)C3)c1 (stereo not drawn) [Example 77, N-(3-cyanophenyl)-3-(5-(3,5-difluorophenyl)-4,5-dihydro-1H-pyrazole-1-carbonyl)-bicyclo[1.1.1]pentane-1-carboxamide]	–	–
284	N#Cc1cnc(OCC23CC(C(=O)N4CC(F)CC4c4cccc(F)c4)(C2)C3)nc1 (stereo not drawn) [Example 100, 2-((3-(4-fluoro-2-(3-fluorophenyl)pyrrolidine-1-carbonyl)bicyclo[1.1.1]-pentan-1-yl)methoxy)-pyrimidine-5-carbonitrile]	–	–
3050	N#Cc1cc(OCC23CC(C(=O)NCc4cc(F)cc(F)c4)(C2)C3)ncn1 [Example 104, 3-(((6-cyanopyrimidin-4-yl)oxy)methyl)-N-(3,5-difluorobenzyl)bicyclo-[1.1.1]pentane-1-carboxamide]	–	–
4630	COCC12CC(C(=O)N3CC(F)CC3c3cccc(F)c3)(C1)C2 (stereo not drawn) [Example 35, (4-Fluoro-2-(3-fluorophenyl)pyrrolidin-1-yl)(3-(methoxymethyl)-bicyclo[1.1.1]pentan-1-yl)methanone]	–	–
19300	N#Cc1ccn(CC23CC(C(=O)N4CC(F)CC4c4cccc(F)c4)(C2)C3)c(=O)c1 (stereo not drawn) [Example 36, 1-((3-(4-Fluoro-2-(3-fluorophenyl)pyrrolidine-1-carbonyl)bicyclo[1.1.1]pentan-1-yl)methyl)-2-oxo-1,2-dihydropyridine-4-carbonitrile]	–	–
21200	O=C(O)C12CC(C(=O)N3N=CCC3c3cc(F)cc(F)c3)(C1)C2 (stereo not drawn) [Example 2, 3-(5-(3,5-Difluorophenyl)-4,5-dihydro-1H-pyrazole-1-carbonyl)-bicyclo[1.1.1]pentane-1-carboxylic acid]	–	–
–	N#Cc1cc(OCC23CC(C(=O)N4CC[C@@H](Oc5cc(F)ccc5F)C4)(C2)C3)ncn1 [Example 39, (R)-6-((3-(3-(2,5-difluorophenoxy)pyrrolidine-1-carbonyl)-bicyclo[1.1.1]pentan-1-yl)methoxy)pyrimidine-4-carbonitrile]	–	IC50 (RIPK1; footnote symbol (a)): > 50000 nM
–	Cc1ncc(C2CC=NN2C(=O)C23CC(Cn4ncc5cc(C#N)ccc54)(C2)C3)cc1F (stereo not drawn) [Example 246, 1-((3-(5-(5-fluoro-6-methyl-pyridin-3-yl)-4,5-dihydro-1H-pyrazole-1-carbonyl)bicyclo-[1.1.1]pentan-1-yl)methyl)-1H-indazole-5-carbonitrile]	73	–
–	N#Cc1cnc(OCC23CC(C(=O)N4N=CCC4c4c(F)cccc4F)(C2)C3)cn1 (stereo not drawn) [Example 307, 5-((3-(5-(2,6-difluorophenyl)-4,5-dihydro-1H-pyrazole-1-carbonyl)bicyclo[1.1.1]pentan-1-yl)methoxy)pyrazine-2-carbonitrile]	8.7	–
–	N#Cc1ccc(OCC23CC(C(=O)N4N=CCC4c4cc(F)c(C5CC5)c(F)c4)(C2)C3)nc1 (stereo not drawn) [Example 339, 6-((3-(5-(4-cyclopropyl-3,5-difluorophenyl)-4,5-dihydro-1H-pyrazole-1-carbonyl)-bicyclo[1.1.1]pentan-1-yl)-methoxy)nicotinonitrile]	453	–
–	N#Cc1cnc(OCC23CC(C(=O)N4N=CCC4c4ccc(Cl)cc4)(C2)C3)cn1 (stereo not drawn) [Example 310, 5-((3-(5-(4-chlorophenyl)-4,5-dihydro-1H-pyrazole-1-carbonyl)bicyclo[1.1.1]pentan-1-yl)methoxy)pyrazine-2-carbonitrile]	22	–
–	C[C@H](NC(=O)C12CC(COc3cnc(C#N)cn3)(C1)C2)c1cc(F)ccc1F [Example 297, (S)-3-(((5-cyanopyrazin-2-yl)-oxy)methyl)-N-(1-(2,5-difluorophenyl)ethyl)bicyclo-[1.1.1]pentane-1-carboxamide]	6060	–
–	CC1CC(c2cccc(F)c2)N(C(=O)C23CC(Cn4ncc5cc(C#N)ccc54)(C2)C3)C1 (stereo not drawn) [Example 257, 1-((3-(2-(3-fluorophenyl)-4-methylpyrrolidine-1-carbonyl)-bicyclo[1.1.1]pentan-1-yl)-methyl)-1H-indazole-5-carbonitrile]	2080	–
–	N#Cc1ccc(OCC23CC(C(=O)N4N=CCC4c4cccc(C#N)c4)(C2)C3)nc1 (stereo not drawn) [Example 281, 6-((3-(5-(3-cyanophenyl)-4,5-dihydro-1H-pyrazole-1-carbonyl)bicyclo[1.1.1]pentan-1-yl)methoxy)nicotinonitrile]	148	–
–	Cc1ccc(C2CC=NN2C(=O)C23CC(Cn4ncc5cc(C#N)ccc54)(C2)C3)cn1 (stereo not drawn) [Example 249, 1-((3-(5-(6-methylpyridin-3-yl)-4,5-dihydro-1H-pyrazole-1-carbonyl)bicyclo[1.1.1]-pentan-1-yl)methyl)-1H-indazole-5-carbonitrile]	299	–
–	Cc1cc(F)c(C2CC=NN2C(=O)C23CC(Cn4ncc5cc(C#N)ccc54)(C2)C3)cc1F (stereo not drawn) [Example 236, 1-((3-(5-(2,5-difluoro-4-methylphenyl)-4,5-dihydro-1H-pyrazole-1-carbonyl)-bicyclo[1.1.1]pentan-1-yl)-methyl)-1H-indazole-5-carbonitrile]	3.8	–
–	N#Cc1cc2cnn(CC34CC(C(=O)N5N=CCC5c5cc(F)cc(F)c5)(C3)C4)c2cc1Cl (stereo not drawn) [Example 214, 6-chloro-1-((3-(5-(3,5-difluorophenyl)-4,5-dihydro-1H-pyrazole-1-carbonyl)-bicyclo[1.1.1]pentan-1-yl)-methyl)-1H-indazole-5-carbonitrile]	71	–
–	Cc1nc(OCC23CC(C(=O)N4N=CCC4c4cnc(C#N)cn4)(C2)C3)ccc1F (stereo not drawn) [Example 313, 5-(1-(3-(((5-fluoro-6-methylpyridin-2-yl)oxy)-methyl)bicyclo[1.1.1]pentane-1-carbonyl)-4,5-dihydro-1H-pyrazol-5-yl)pyrazine-2-carbonitrile]	251	–
–	Cc1ccc(C2CC=NN2C(=O)C23CC(Cn4ncc5cc(C#N)ccc54)(C2)C3)c(F)c1 (stereo not drawn) [Example 238, 1-((3-(5-(2-fluoro-4-methyl-phenyl)-4,5-dihydro-1H-pyrazole-1-carbonyl)bicyclo-[1.1.1]pentan-1-yl)methyl)-1H-indazole-5-carbonitrile]	8.4	–
–	N#Cc1cnc(OCC23CC(C(=O)N4N=CCC4c4cccc(Cl)c4Cl)(C2)C3)cn1 (stereo not drawn) [Example 311, 5-((3-(5-(2,3-dichlorophenyl)-4,5-dihydro-1H-pyrazole-1-carbonyl)bicyclo[1.1.1]pentan-1-yl)methoxy)pyrazine-2-carbonitrile]	40	–

Molecule	IC50 (RIPK1) [nM]	IC50 [1] [nM]	further results
(3-((3-cyclopropyl-1H-pyrazol-1-yl)methyl)-bicyclo[1.1.1]pentan-1-yl)(5-(3,5-difluorophenyl)-4,5-dihydro-1H-pyrazol-1-yl)methanone and (3-((5-cyclopropyl-1H-pyrazol-1-yl)methyl)-bicyclo[1.1.1]pentan-1-yl)(5-(3,5-difluorophenyl)-4,5-dihydro-1H-pyrazol-1-yl)methanone [Example 191]	74	–	–
(5-(3,5-difluorophenyl)-4,5-dihydro-1H-pyrazol-1-yl)(3-((3-methyl-1H-pyrazol-1-yl)methyl)bicyclo[1.1.1]-pentan-1-yl)methanone and (5-(3,5-difluorophenyl)-4,5-dihydro-1H-pyrazol-1-yl)(3-((5-methyl-1H-pyrazol-1-yl)methyl)bicyclo[1.1.1]-pentan-1-yl)methanone [Example 190]	30	–	–
